Ends that are not written are not given here.

Results on one substance are retold here after patent US6635479B1, “Hypothalamus-specific polypeptides” (The Scripps Research Institute, priority 1996, dated 2003).

The nature of assay [1]: food intake after intracerebroventricular infusion. In kind it is in vivo, rats. The note with it: 5 μg ICV; monitored over 2 hours following administration. How it is done: (§1) Synthetic, amidated hcrt2 peptide at different concentrations was infused intracerebroventricularly in rats and body temperature by was monitored telemetry. Stereotactic ablation studies have previously implicated the dorsal-lateral hypothalamus in feeding behavior, blood pressure, and central regulation of immune function, although precise nuclei have not been correlated with these activities. A threshold-type response was obtained in which, at the highest dose, 10 μg, body temperature dropped from 37.7 to 36.7 degrees Celsius over 30 minutes following administration, then recovered to normal over 2 hours. Food intake was monitored over 2 hours following administration and a 40% reduction in food intake was measured at a dose of 5 μg. […] The presumed target cells of hypocretin may not be very accessible by this unphysiological mode of administration. Local injection or intravenous administration of hypocretin might be more suitable for physiological studies.

A short description of assay [2]: body temperature by telemetry after intracerebroventricular infusion. In kind it is in vivo, rats. How it is done: as §1
Assay [3] has as its system synaptically coupled hippocampal dentate granule neurons in culture. Description: voltage clamp recording in cultured hippocampal dentate granule neurons. In kind it is cell-based.
Assay [4] concerns synaptically-coupled rat hypothalamic neurons. The assay is described as follows: voltage clamp recording of postsynaptic currents in cultured hypothalamic neurons. In kind it is cell-based. On the procedure:
To test this hypothesis, 10-day cultures of synaptically-coupled rat hypothalamic neurons were prepared and postsynaptic currents were recorded under voltage clamp.
Rat hypothalamus from 18-day embryos was cultured for 10 days in vitro. The mediobasal hypothalamus was removed from embryonic day 18 Sprague Dawley rats. The tissue was enzymatically digested in a mild protease solution (10 U/ml papain and 0.2 mg/ml L-cysteine in Earle's balanced salt solution) for 30 minutes. Next, the tissue was pelleted, and the protease solution was removed. Tissue was then suspended in standard tissue culture medium (glutamate- and […] DMEM supplemented with 10% fetal bovine serum, 100 U/ml penicillin/streptomycin, and 6 gm/l glucose) and then triturated into a single-cell suspension. Cells were washed and pelleted an additional three times. The single-cell suspension was plated onto 22 mm^2 glass coverslips that had been coated with high-molecular-weight (540,000 Da) poly-D-lysine. High-density cultures (200,000/cm^2) were used for all experiments. Hypothalamic neural cultures were maintained in a Napco 3600 incubator (37 degree Celsius and 5% CO2) until they were ready for use. To limit non-neuronal cell proliferation cytosine arabinofuranoside (1 μM) was added to the tissue culture medium 1 day after plating.
Synaptically coupled hypothalamic neurons were recorded in voltage clamp with a whole cell pipette (holding potential=−60 mV). This recording is typical of 9 of 12 cells examined under these conditions. […] Inset boxes show higher resolution of the events indicated by the dotted line. Both boxes (in FIGS. 7A and B) were recorded with an identical delay after hcrt2 administration. A less mature hypothalamic neuron after 4 days of culture was unresponsive to 1 μM hcrt2 (FIG. 7B). Pipette solution contained 128 mM KMeSO4, 27 mM KCl, 0.4 mM EGTA, 1 mM ATP, and 0.5 mM GTP.

Setting [5] is: 1 μM applied to bath, 10 days in vitro, holding potential −60 mV.
[6] abbreviates: 1 μM, 10-day cultures, voltage clamp.

On to “hcrt2: synthetic peptide corresponding to amidated hcrt2; preprohypocretin residues about 70 to 96 (SEQ ID NO:10; unamidated form SEQ ID NO:9) (PGPPGLQGRLQRLLQANGNHAAGILTM-NH2)”, for which the “reduction in food intake” value in assay [1] worked out at 40%. For the same substance, the “body temperature after administration” value in assay [2] (10 μg (highest dose) ICV, dropped from 37.7 over 30 minutes) was determined as 36.7 degrees Celsius. Moreover, the “time to recovery of body temperature to normal” value in assay [2] (10 μg ICV) is 2 h. In addition, in assay [3], the “response of hippocampal dentate granule neurons” value was “no response”. For the same substance, in assay [4] (setting [5]), the “cells showing the typical recording (increased PSC frequency)” value is 9 of 12 and the “increase in frequency of postsynaptic events (PSCs)” value was at most 400%. Further, in assay [4] (setting [6]), the “cells showing no response” value turned out to be 25% and the “neurons tested showing substantial, reversible increase in the frequency of postsynaptic currents” value is 75%. For the same substance, the “response of less mature hypothalamic neuron after 4 days of culture” value in assay [4] (1 μM, 4 days of culture (FIG. 7B)) is recorded as “unresponsive”. Moreover, the “frequency of PSCs after washout of the peptide” value in assay [4] (after washout of 1 μM) is “returned to normal baseline levels”. In assay [4] (application of 1 μg, isolated in vitro rat hypothalamic cells), the “electrical responses in voltage clamp experiments (FIGS. 7A-7B legend)” value is recorded as “produced electrical responses in adult but not immature neurons”. For the same substance, the “response of hypothalamic neurons in culture for only 3-5 days” value in assay [4] (neurons 3-5 days in culture) is “little response”.
